What was measured:
[1] = tested on: Adenosine receptor A2a (Bos taurus); assay: Inhibition of specific [3H]-CGS- 21680 binding at Adenosine A2A receptor in bovine striatal membranes at 20 uM.; conditions: Striatum, Membrane
[2] = target: T1, Adenosine receptor A3 (Homo sapiens, UniProt P0DMS8); assay: Displacement of specific [125I]AB-MECA binding at human adenosine A3 receptor expressed in CHO cells; assay type: cell-based
T1 sequence (P0DMS8 whole entry): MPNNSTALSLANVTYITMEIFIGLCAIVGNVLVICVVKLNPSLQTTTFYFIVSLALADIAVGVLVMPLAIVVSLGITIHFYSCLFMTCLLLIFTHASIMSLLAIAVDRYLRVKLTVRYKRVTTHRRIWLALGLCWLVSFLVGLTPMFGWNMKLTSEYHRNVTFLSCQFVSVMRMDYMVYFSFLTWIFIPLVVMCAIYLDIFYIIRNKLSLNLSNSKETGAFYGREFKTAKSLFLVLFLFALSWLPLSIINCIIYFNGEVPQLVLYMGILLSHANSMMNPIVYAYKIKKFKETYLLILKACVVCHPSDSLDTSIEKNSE

[3] = target: T2, Adenosine receptor A1 (Bos taurus, UniProt P28190); assay: Displacement of specific [3H]CHA binding at adenosine A1 receptor in bovine brain membranes; assay type: cell membranes
T2 sequence (P28190 whole entry): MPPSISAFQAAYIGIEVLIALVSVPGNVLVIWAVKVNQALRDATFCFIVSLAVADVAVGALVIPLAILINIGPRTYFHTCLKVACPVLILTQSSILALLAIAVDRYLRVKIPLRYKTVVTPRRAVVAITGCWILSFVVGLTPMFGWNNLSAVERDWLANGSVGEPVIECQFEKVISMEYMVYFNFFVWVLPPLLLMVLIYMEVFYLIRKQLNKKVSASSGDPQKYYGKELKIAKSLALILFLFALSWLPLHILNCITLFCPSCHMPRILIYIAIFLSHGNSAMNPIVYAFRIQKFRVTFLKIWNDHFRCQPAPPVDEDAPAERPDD

[4] = target: Adenosine receptor A2a (Bos taurus); assay: Displacement of specific [3H]-CGS- 21680 binding at Adenosine A2A receptor in bovine striatal membranes.
[5] = target: T3, Adenosine receptor A1 (Bos taurus) (UniProt P28190); assay: Inhibition of [3H]CHA binding at Adenosine A1 receptor in bovine brain membranes at 20 uM; assay type: cell membranes
T3 sequence (whole entry): T2 sequence (P28190 whole entry)

[6] = target: T4, Adenosine receptor A3 (Homo sapiens) (UniProt P0DMS8); assay: Inhibition of [125I]AB-MECA binding to human Adenosine A3 receptor expressed in CHO cells at 1 uM; assay type: cell-based
T4 sequence (whole entry): T1 sequence (P0DMS8 whole entry)

Structure (SMILES) | inhibition [1] [%] | Ki [2] [nM] | Ki [3] [nM] | Ki [4] [nM] | inhibition [5] [%] | inhibition [6] [%]
Oc1nc2ccccc2c2cn(-c3cccc(F)c3)nc12 | 0 | 45.3 | 583 |  |  | 
O=c1[nH]c2ccc(Cl)cc2c2cn(-c3ccccc3)nc12 |  | 44.1 | 284 |  |  | 
Nc1nc2ccccc2c2cn(-c3cccc(F)c3)nc12 |  | 788 | 110 |  |  | 
COc1ccc(-n2cc3c(n2)c(=O)[nH]c2ccccc23)cc1 | 18 | 3.2 | 1080 |  |  | 
Cc1ccccc1-n1cc2c(n1)c(=O)[nH]c1ccccc12 |  | 79.2 | 3200 |  |  | 
O=C(NCc1ccccc1)Nc1nc2ccccc2c2cn(-c3ccccc3)nc12 | 5 | 8.3 | 186 |  |  | 
O=C(Nc1ccccc1)Nc1nc2ccccc2c2cn(-c3ccccc3)nc12 | 32 | 108 | 1500 |  |  | 
O=C(Nc1nc2ccccc2c2cn(-c3ccccc3)nc12)c1ccccc1 |  | 2.1 |  |  | 42 | 
O=c1[nH]c2ccccc2c2cn(-c3ccccc3)nc12 |  | 30.8 |  |  |  | 
Cn1c(=O)c2nn(-c3ccccc3)cc2c2ccccc21 |  | 118 | 1230 |  |  | 
Cc1cccc(-n2cc3c(n2)c(N)nc2ccccc23)c1 |  | 99.3 | 129 | 3750 |  | 
CCCn1c(=O)c2nn(-c3ccccc3)cc2c2ccccc21 |  | 68.4 | 950 |  |  | 
c1ccc(CCNc2nc3ccccc3c3cn(-c4ccccc4)nc23)cc1 |  | 32.9 | 60.1 |  |  | 
Cc1ccc(-n2cc3c(n2)c(=O)[nH]c2ccccc23)cc1 |  | 3.2 | 3900 |  |  | 
Cc1cccc(-n2cc3c(n2)c(=O)[nH]c2ccccc23)c1 | 17 | 5 | 830 |  |  | 
Cc1ccccc1-n1cc2c(n1)c(N)nc1ccccc12 |  | 3600 | 520 | 1600 |  | 
O=C(Cc1ccccc1)Nc1nc2ccccc2c2cn(-c3ccccc3)nc12 |  | 9.9 | 107 |  |  | 
Cc1ccccc1-n1cc2c(n1)c(O)nc1ccccc12 | 0 |  |  |  |  | 

Continued, values first:

inhibition [1] [%] | Ki [2] [nM] | Ki [3] [nM] | Ki [4] [nM] | inhibition [5] [%] | inhibition [6] [%] | Structure (SMILES)
52 |  |  |  |  |  | Oc1nc2ccc(Cl)cc2c2cn(-c3ccccc3)nc12
 | 309 | 86.1 | 5750 |  |  | Nc1nc2ccc(Cl)cc2c2cn(-c3ccccc3)nc12
 | 155 | 54.7 |  |  |  | Fc1cccc(-n2cc3c(n2)c(NC2CCCCC2)nc2ccccc23)c1
8 | 56.5 | 478 |  |  |  | Clc1ccc(-n2cc3c(n2)c(NC2CCCCC2)nc2ccccc23)cc1
 | 2130 | 27.1 | 4140 |  |  | Clc1ccc2nc(NC3CCCCC3)c3nn(-c4ccccc4)cc3c2c1
35 |  |  |  |  |  | Oc1nc2ccccc2c2cn(-c3ccc(Cl)cc3)nc12
 | 707 | 8.6 |  |  |  | c1ccc(-n2cc3c(n2)c(NC2CCCCC2)nc2ccccc23)cc1
 | 35.8 | 132 | 5400 |  |  | c1ccc(CNc2nc3ccccc3c3cn(-c4ccccc4)nc23)cc1
 | 150 |  |  |  |  | Nc1nc2ccccc2c2cn(-c3ccc(Cl)cc3)nc12
 | 90.2 | 238 |  |  |  | COc1ccc(-n2cc3c(n2)c(N)nc2ccccc23)cc1
 | 551 | 69.2 |  |  |  | Nc1nc2ccccc2c2cn(-c3ccccc3)nc12
 | 60.5 | 3.2 | 849 |  |  | c1ccc(-n2cc3c(n2)c(NC2CCCC2)nc2ccccc23)cc1
 | 48.2 | 75.9 |  |  |  | CC(=O)Nc1nc2ccccc2c2cn(-c3ccccc3)nc12
 | 2.9 | 464 |  |  |  | O=c1[nH]c2ccccc2c2cn(-c3ccc(Cl)cc3)nc12
 | 44.1 | 22.2 | 11400 |  |  | Cc1cccc(-n2cc3c(n2)c(NC2CCCCC2)nc2ccccc23)c1
 | 188 | 215 |  |  |  | Cc1ccc(-n2cc3c(n2)c(N)nc2ccccc23)cc1
 | 115 | 71.9 |  |  |  | Cc1ccc(-n2cc3c(n2)c(NC2CCCCC2)nc2ccccc23)cc1
 | 152 | 148 |  |  |  | Cc1ccccc1-n1cc2c(n1)c(NC1CCCC1)nc1ccccc12
 | 22.3 | 40.7 |  |  |  | Cc1cccc(-n2cc3c(n2)c(NC2CCCC2)nc2ccccc23)c1
 |  | 9.3 | 2210 |  | 34 | Fc1cccc(-n2cc3c(n2)c(NC2CCCC2)nc2ccccc23)c1
